Test results published in patent US20250136595A1, “ACYLATED HETEROCYCLIC QUINAZOLINE DERIVATIVES AS INHIBITORS OF ERBB2” (Enliven Inc., priority 2022, published 2025).

Experiments:
[1] = target: T1, phosphorylated ERBB2 (pERBB2) (Homo sapiens, UniProt P04626); assay: Detection of phosphorylated ERBB2 (pERBB2) by ELISA in BT-474 cells; format: cell-based; conditions: four hour incubation with compound
T1 construct: endogenous in cells; host or cells: BT-474
Method in brief: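 BT-474 cells treated 4 h at 37 °C, 5% CO2 with four-fold dilutions (10 μM to 0.01 nM final). Lysates analysed by ELISA for pERBB2, TMB read at OD 450 nm. % relative activity normalised to no-cell (low) and 0.1% DMSO-treated (high) controls.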

Ba/F3 ERBB2 YVMA = Ba/F3 ERBB2 YVMA (Homo sapiens, UniProt P04626, DUP772-775, cells depend on it); assay: Cell viability assay (CellTiter Glo) in Ba/F3 cells engineered to express ERBB2 YVMA; format: cell-based, mouse; conditions: Ba/F3 cells expressing human ERBB2 YVMA mutant, 72 hours, % viability, read-out: Ba/F3 ERBB2 YVMA IC50
Sequence of Ba/F3 ERBB2 YVMA (P04626 with tags, fused parts or gaps DUP772-775): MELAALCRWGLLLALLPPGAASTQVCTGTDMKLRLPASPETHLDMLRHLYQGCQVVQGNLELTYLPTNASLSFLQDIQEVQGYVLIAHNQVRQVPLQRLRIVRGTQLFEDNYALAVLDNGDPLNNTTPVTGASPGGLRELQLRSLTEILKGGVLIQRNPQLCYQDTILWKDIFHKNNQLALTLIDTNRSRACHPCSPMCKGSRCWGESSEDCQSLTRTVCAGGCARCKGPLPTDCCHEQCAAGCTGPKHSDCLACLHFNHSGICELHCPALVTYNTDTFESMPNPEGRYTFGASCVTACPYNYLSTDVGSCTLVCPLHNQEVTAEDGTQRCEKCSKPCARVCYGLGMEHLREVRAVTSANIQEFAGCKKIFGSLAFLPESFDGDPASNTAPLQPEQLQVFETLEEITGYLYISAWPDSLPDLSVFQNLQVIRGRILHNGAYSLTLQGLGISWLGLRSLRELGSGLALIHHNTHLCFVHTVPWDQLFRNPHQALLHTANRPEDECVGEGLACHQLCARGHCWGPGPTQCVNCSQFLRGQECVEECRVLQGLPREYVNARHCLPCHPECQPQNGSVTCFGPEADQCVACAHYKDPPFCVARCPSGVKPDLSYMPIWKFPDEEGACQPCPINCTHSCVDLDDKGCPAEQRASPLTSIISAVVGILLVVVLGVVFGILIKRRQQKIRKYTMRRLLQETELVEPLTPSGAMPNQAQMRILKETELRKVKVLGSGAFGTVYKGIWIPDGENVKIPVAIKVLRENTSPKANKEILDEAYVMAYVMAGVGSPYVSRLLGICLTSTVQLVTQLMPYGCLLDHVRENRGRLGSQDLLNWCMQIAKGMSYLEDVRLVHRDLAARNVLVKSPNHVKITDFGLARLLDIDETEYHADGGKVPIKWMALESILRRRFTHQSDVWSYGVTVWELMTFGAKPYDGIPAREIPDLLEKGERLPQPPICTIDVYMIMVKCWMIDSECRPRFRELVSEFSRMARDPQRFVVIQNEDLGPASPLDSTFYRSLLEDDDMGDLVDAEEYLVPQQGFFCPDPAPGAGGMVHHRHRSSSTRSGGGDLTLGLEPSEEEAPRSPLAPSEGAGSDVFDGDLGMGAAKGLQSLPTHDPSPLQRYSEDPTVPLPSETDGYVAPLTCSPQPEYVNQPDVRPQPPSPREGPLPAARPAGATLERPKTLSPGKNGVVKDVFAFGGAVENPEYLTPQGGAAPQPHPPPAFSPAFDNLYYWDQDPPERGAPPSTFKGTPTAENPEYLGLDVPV
Method in brief: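 IL-3-independent mouse Ba/F3 line stably transduced with human ERBB2 YVMA, seeded at 3000 cells/well, exposed to serially diluted compound (≤0.1% DMSO) for 72 h at 37° C. ATP read by CellTiter Glo luminescence, normalised to DMSO and media-only controls; sigmoidal nonlinear regression fit.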

[2] = target: T2, phosphorylated EGFR (pEGFR) (Homo sapiens, UniProt P00533); assay: Detection of phosphorylated EGFR (pEGFR) in EGF-stimulated A431 cells (AlphaLISA); format: cell-based; conditions: A431 cells (10% FBS), 4 hours incubation, EGF 30 ng/mL for 10 minutes
T2 construct: performed to measure phosphorylated EGFR levels using A431 cells; endogenous in cells; host or cells: A431
T2 sequence (P00533 25-1210): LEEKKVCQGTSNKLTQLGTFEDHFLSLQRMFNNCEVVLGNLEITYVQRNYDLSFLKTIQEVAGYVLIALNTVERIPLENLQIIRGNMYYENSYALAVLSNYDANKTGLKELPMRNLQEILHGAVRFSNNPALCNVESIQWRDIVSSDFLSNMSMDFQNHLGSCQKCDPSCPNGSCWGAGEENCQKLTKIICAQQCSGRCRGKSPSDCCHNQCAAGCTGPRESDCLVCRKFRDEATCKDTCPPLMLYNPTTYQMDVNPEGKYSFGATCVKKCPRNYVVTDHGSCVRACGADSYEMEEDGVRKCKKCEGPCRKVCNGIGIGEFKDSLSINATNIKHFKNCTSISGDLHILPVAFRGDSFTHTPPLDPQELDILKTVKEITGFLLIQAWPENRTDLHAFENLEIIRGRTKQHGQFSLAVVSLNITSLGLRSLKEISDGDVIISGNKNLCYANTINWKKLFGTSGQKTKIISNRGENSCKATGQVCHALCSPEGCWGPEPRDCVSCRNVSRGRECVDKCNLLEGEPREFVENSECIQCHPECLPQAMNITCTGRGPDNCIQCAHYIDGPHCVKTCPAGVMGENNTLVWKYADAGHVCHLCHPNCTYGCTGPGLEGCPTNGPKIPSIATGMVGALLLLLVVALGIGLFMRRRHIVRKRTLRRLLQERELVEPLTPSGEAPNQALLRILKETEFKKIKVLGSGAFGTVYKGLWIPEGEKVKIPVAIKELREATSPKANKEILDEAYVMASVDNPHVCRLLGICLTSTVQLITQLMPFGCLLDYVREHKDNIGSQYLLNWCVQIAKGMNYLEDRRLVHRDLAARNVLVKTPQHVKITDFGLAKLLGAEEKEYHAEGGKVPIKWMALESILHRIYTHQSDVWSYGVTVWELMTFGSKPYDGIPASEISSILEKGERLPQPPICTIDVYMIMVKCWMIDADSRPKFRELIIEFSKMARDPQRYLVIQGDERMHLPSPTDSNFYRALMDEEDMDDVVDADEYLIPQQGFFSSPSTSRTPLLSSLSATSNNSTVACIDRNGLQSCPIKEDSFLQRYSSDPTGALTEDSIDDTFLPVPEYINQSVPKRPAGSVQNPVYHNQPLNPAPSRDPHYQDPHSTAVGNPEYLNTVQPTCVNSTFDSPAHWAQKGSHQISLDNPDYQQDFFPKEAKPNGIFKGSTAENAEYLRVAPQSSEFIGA
Method in brief: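 Cells in 10% FBS treated with compound 4 h at 37° C., then stimulated 10 min with 30 ng/mL EGF, lysed, and pEGFR measured by AlphaLISA. Inhibition normalized to DMSO and staurosporine controls; IC50 from four-parameter logistic fit.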

T1 sequence (P04626 23-1255): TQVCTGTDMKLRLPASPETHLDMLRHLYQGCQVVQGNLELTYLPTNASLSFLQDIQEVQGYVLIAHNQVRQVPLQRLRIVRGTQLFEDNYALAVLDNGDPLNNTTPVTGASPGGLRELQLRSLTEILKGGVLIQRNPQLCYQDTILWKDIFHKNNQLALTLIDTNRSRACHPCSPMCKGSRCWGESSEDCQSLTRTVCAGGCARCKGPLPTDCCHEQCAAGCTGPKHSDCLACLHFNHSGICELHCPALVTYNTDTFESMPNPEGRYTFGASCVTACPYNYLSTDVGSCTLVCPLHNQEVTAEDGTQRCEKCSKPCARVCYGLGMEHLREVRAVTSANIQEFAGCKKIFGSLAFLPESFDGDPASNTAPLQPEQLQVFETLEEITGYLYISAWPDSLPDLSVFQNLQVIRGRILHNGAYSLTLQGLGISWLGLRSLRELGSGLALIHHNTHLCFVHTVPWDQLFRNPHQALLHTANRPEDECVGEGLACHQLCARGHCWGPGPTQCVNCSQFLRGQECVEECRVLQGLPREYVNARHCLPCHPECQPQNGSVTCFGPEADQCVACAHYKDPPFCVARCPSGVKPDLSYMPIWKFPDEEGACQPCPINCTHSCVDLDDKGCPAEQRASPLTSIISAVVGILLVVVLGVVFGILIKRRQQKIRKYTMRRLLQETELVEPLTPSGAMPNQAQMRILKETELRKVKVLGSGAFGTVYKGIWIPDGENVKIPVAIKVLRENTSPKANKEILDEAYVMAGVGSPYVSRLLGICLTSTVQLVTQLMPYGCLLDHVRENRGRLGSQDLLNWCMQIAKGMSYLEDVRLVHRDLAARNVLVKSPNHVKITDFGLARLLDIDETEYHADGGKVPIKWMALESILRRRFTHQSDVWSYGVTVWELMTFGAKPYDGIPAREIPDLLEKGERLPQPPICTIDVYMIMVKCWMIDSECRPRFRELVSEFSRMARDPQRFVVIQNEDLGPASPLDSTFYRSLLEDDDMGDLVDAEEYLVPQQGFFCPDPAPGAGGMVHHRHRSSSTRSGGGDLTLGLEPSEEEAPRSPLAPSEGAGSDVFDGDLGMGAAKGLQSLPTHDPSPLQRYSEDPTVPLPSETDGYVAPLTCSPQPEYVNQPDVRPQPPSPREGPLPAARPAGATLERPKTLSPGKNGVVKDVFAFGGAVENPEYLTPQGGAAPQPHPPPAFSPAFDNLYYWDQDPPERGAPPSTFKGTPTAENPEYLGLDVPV

Compound	IC50 [1]	GI50 (Ba/F3 ERBB2 YVMA)	IC50 [2]
C=CC(=O)N1CCN(c2ncc3ncnc(Nc4ccc(Cc5ccn6ncnc6c5)c(C)c4)c3n2)[C@@H](C)C1 [Compound 113, 1-[(3S)-3-methyl-4-{8-[(3-methyl-4-{[1,2,4]triazolo[1,5-a]pyridin-7-ylmethyl}phenyl)amino]pyrimido[5,4-d][1,3]diazin-2-yl}piperazin-1-yl]prop-2-en-1-one]	31.9 nM	8.87 nM	> 10000 nM
C=CC(=O)N1CCN(c2cc3c(Nc4ccc(CN5CCn6ncnc6C5)c(C)c4)ncnc3cn2)CC1 [Compound 99, 1-(4-{4-[(3-methyl-4-{5H,6H,8H-[1,2,4]triazolo[1,5-a]pyrazin-7-ylmethyl}phenyl)amino]pyrido[3,4-d]pyrimidin-6-yl}piperazin-1-yl)prop-2-en-1-one]	227 nM	> 500 nM	> 10000 nM
C=CC(=O)N1CCN(c2ccc3ncnc(Nc4ccc(CN5CCn6ncnc6C5)c(C)c4)c3c2)CC1 [Compound 101, 1-(4-{4-[(3-methyl-4-{5H,6H,8H-[1,2,4]triazolo[1,5-a]pyrazin-7-ylmethyl}phenyl)amino]quinazolin-6-yl}piperazin-1-yl)prop-2-en-1-one]	99 nM	> 500 nM	> 10000 nM
CC#CC(=O)N1CCN(c2ccc3ncnc(Nc4ccc(Oc5ccn6ncnc6c5)c(C)c4)c3n2)CC1 [Compound 8, 1-(4-{4-[(3-methyl-4-{[1,2,4]triazolo[1,5-a]pyridin-7-yloxy}phenyl)amino]pyrido[3,2-d]pyrimidin-6-yl}piperazin-1-yl)but-2-yn-1-one]	27.1 nM	18.9 nM	5170 nM
C=CC(=O)N1CCN(c2ncc3ncnc(Nc4ccc(Oc5ccn6ncnc6c5)c(C)c4)c3n2)[C@@H](C)C1 [Compound 70, 1-[(3S)-3-methyl-4-{8-[(3-methyl-4-{[1,2,4]triazolo[1,5-a]pyridin-7-yloxy}phenyl)amino]pyrimido[5,4-d][1,3]diazin-2-yl}piperazin-1-yl]prop-2-en-1-one]	16.3 nM	9.96 nM	2320 nM
Cc1cc(Nc2ncnc3ccc(N4CCN(C(=O)/C=C/CN(C)C)[C@H](C)C4)nc23)ccc1Cc1ccc2c(c1)ncn2C [Compound 121, (R,E)-4-(dimethylamino)-1-(2-methyl-4-(4-((3-methyl-4-((1-methyl-1H-benzo[d]imidazol-5-yl)methyl)phenyl)amino)pyrido[3,2-d]pyrimidin-6-yl)piperazin-1-yl)but-2-en-1-one]	55.9 nM	9.08 nM	6740 nM
CC#CC(=O)N1CC2CC(C1)N2c1ccc2ncnc(Nc3ccc(Oc4ccn5ncnc5c4)c(C)c3)c2n1 [Compound 28, 1-(6-{4-[(3-methyl-4-{[1,2,4]triazolo[1,5-a]pyridin-7-yloxy}phenyl)amino]pyrido[3,2-d]pyrimidin-6-yl}-3,6-diazabicyclo[3.1.1]heptan-3-yl)but-2-yn-1-one]	444 nM	228 nM	> 10000 nM
CC#CC(=O)N1CC2CC1CN2c1ccc2ncnc(Nc3ccc(Oc4ccn5ncnc5c4)c(C)c3)c2n1 (stereo not drawn) [Compound 30, 1-(5-(4-((4-([1,2,4]triazolo[1,5-a]pyridin-7-yloxy)-3-methylphenyl)amino)pyrido[3,2-d]pyrimidin-6-yl)-2,5-diazabicyclo[2.2.1]heptan-2-yl)but-2-yn-1-one]	61.4 nM	21.2 nM	2430 nM
C=CC(=O)N1CCN(c2ccc3ncnc(Nc4ccc(Oc5ccn6ncnc6c5)c(C)c4)c3c2F)C[C@H]1C [Compound 63, (R)-1-(4-(4-((4-([1,2,4]triazolo[1,5-a]pyridin-7-yloxy)-3-methylphenyl)amino)-5-fluoroquinazolin-6-yl)-2-methylpiperazin-1-yl)prop-2-en-1-one]	21.4 nM	10.5 nM	5500 nM
C=CC(=O)N1C2CCC1CN(c1ccc3ncnc(Nc4ccc(Oc5ccn6ncnc6c5)c(C)c4)c3n1)C2 [Compound 18, 1-(3-{4-[(3-methyl-4-{[1,2,4]triazolo[1,5-a]pyridin-7-yloxy}phenyl)amino]pyrido[3,2-d]pyrimidin-6-yl}-3,8-diazabicyclo[3.2.1]octan-8-yl)prop-2-en-1-one]	13.4 nM	6.26 nM	293 nM
C=CC(=O)N1[C@H](C)CN(c2ccc3ncnc(Nc4ccc(Oc5ccn6ncnc6c5)c(C)c4)c3n2)C[C@H]1C [Compound 61, 1-[(2R,6R)-2,6-dimethyl-4-{4-[(3-methyl-4-{[1,2,4]triazolo[1,5-a]pyridin-7-yloxy}phenyl)amino]pyrido[3,2-d]pyrimidin-6-yl}piperazin-1-yl]prop-2-en-1-one]	254 nM	> 500 nM	> 10000 nM
Cc1cc(Nc2ncnc3ccc(N4CCN(C(=O)/C=C/CN(C)C)CC4)c(F)c23)ccc1Cc1ccn2ncnc2c1 [Compound 92, (2E)-4-(dimethylamino)-1-(4-{5-fluoro-4-[(3-methyl-4-{[1,2,4]triazolo[1,5-a]pyridin-7-ylmethyl}phenyl)amino]quinazolin-6-yl}piperazin-1-yl) but-2-en-1-one]	31.6 nM	110 nM	> 10000 nM
CC#CC(=O)N1CC[C@H](Oc2ccc3ncnc(Nc4ccc(Oc5ccc6c(c5)ncn6C)c(C)c4)c3n2)C1 [Compound 50, 1-[(3S)-3-{[4-({3-methyl-4-[(1-methyl-1,3-benzodiazol-5-yl)oxy]phenyl}amino)pyrido[3,2-d]pyrimidin-6-yl]oxy}pyrrolidin-1-yl]but-2-yn-1-one]	480 nM	52 nM	> 10000 nM
C=CC(=O)N1CCN(c2ncc3ncnc(Nc4ccc(Oc5ccn6ncnc6c5)c(C)c4)c3n2)C[C@H]1C [Compound 56, 1-[(2R)-2-methyl-4-{8-[(3-methyl-4-{[1,2,4]triazolo[1,5-a]pyridin-7-yloxy}phenyl)amino]pyrimido[5,4-d][1,3]diazin-2-yl}piperazin-1-yl]prop-2-en-1-one]	14.8 nM	7.86 nM	1050 nM
CC#CC(=O)N1CC2CCC(C1)N2c1ccc2ncnc(Nc3ccc(Oc4ccn5ncnc5c4)c(C)c3)c2n1 [Compound 26, 1-(8-{4-[(3-methyl-4-{[1,2,4]triazolo[1,5-a]pyridin-7-yloxy}phenyl)amino]pyrido[3,2-d]pyrimidin-6-yl}-3,8-diazabicyclo[3.2.1]octan-3-yl)but-2-yn-1-one]	35.5 nM	6.16 nM	2350 nM
C=CC(=O)N1CCN(c2ccc3ncnc(Nc4ccc(Cc5ccn6ncnc6c5)c(C)c4)c3c2F)C[C@H]1C [Compound 62, 1-[(2R)-4-{5-fluoro-4-[(3-methyl-4-{[1,2,4]triazolo[1,5-a]pyridin-7-ylmethyl}phenyl)amino]quinazolin-6-yl}-2-methylpiperazin-1-yl]prop-2-en-1-one]	46.9 nM	22.7 nM	> 10000 nM
C=CC(=O)N1CCN(c2cc3c(Nc4ccc(O[C@@H]5CCCOC5)c(C)c4)ncnc3cn2)CC1 [Compound 100, 1-{4-[4-({3-methyl-4-[(3R)-oxan-3-yloxy]phenyl}amino)pyrido[3,4-d]pyrimidin-6-yl]piperazin-1-yl}prop-2-en-1-one]	63.7 nM	98.5 nM	337 nM
C=CC(=O)N1CCN(c2ccc3ncnc(Nc4ccc(Cc5ccn6ncnc6c5)c(C)c4)c3c2F)C(C)C1 (stereo not drawn) [Compound 79, 1-(4-(4-((4-([1,2,4]triazolo[1,5-a]pyridin-7-ylmethyl)-3-methylphenyl)amino)-5-fluoroquinazolin-6-yl)-3-methylpiperazin-1-yl)prop-2-en-1-one]	1600 nM	> 500 nM	> 10000 nM
C=CC(=O)N1CC[C@H](Oc2ccc3ncnc(Nc4ccc(Oc5ccn6ncnc6c5)c(C)c4)c3c2)C1 [Compound 1, (S)-1-(3-((4-((4-([1,2,4]triazolo[1,5-a]pyridin-7-yloxy)-3-methylphenyl)amino)quinazolin-6-yl)oxy)pyrrolidin-1-yl)prop-2-en-1-one]	5.68 nM	8.98 nM	328 nM
C=CC(=O)N1CCN(c2ccc3ncnc(Nc4ccc(Oc5ccc6c(c5)ncn6C)c(C)c4)c3n2)CC1 [Compound 14, 1-{4-[4-({3-methyl-4-[(1-methyl-1,3-benzodiazol-5-yl)oxy]phenyl}amino)pyrido[3,2-d]pyrimidin-6-yl]piperazin-1-yl}prop-2-en-1-one]	14.3 nM	7.83 nM	403 nM
C=CC(=O)N1CCN(c2cc3c(Nc4ccc(Cc5ccc6c(c5)ncn6C)c(C)c4)ncnc3cn2)C[C@H]1C [Compound 97, (R)-1-(2-methyl-4-(4-((3-methyl-4-((1-methyl-1H-benzo[d]imidazol-5-yl)methyl)phenyl)amino)pyrido[3,4-d]pyrimidin-6-yl)piperazin-1-yl)prop-2-en-1-one]	24.2 nM	52.4 nM	4950 nM
C=CC(=O)N1C2CCC1CN(c1ccc3ncnc(Nc4ccc(Cc5ccc6c(c5)ncn6C)c(C)c4)c3n1)C2 [Compound 123, 1-(3-(4-((3-methyl-4-((1-methyl-1H-benzo[d]imidazol-5-yl)methyl)phenyl)amino)pyrido[3,2-d]pyrimidin-6-yl)-3,8-diazabicyclo[3.2.1]octan-8-yl)prop-2-en-1-one]	53 nM	9.61 nM	1270 nM
